± gives the standard deviation of the averaged measurements.
Test: TIMS collisional cross section (CCS, N2) of the lipid ion; higher = larger ion cross section
Conditions: ionization mode: positive, one isomer drawn

SMILES	TIMS collisional cross section (sample type: Liver)	TIMS collisional cross section (sample type: HeLa)	TIMS collisional cross section (sample type: plasma)
CCCCC/C=C\CCCCCCCC(=O)O[C@H](COC(=O)CCCCCCCCCCCCCC)COC(=O)CCCCCCCCCCCCCCC [TG 15:0_15:1_16:0] (ion (formula + adduct): [C49H92O6+NH4] 1+)	305.9 Å²		
CCCCCCCCCCCCCCCC(=O)OC[C@@H](COC(=O)CCCCCCCCCCCCCC)OC(=O)CCCCCCCCCCCCCCC [TG 15:0_16:0_16:0] (ion (formula + adduct): [C50H96O6+NH4] 1+)		311.5 Å²	311.3 ± 0.14 Å²
CCCCCC/C=C\CCCCCCCC(=O)OC[C@@H](COC(=O)CCCCCCCCCCCCCC)OC(=O)CCCCCCCCCCCCCCC [TG 15:0_16:0_16:1] (ion (formula + adduct): [C50H94O6+NH4] 1+)	309.02 ± 0.29 Å²		309.2 Å²
CCCCCCCCCCCCCCCCC(=O)OC[C@@H](COC(=O)CCCCCCCCCCCCCC)OC(=O)CCCCCCCCCCCCCCC [TG 15:0_16:0_17:0] (ion (formula + adduct): [C51H98O6+NH4] 1+)		314.3 Å²	314.6 ± 0.22 Å²
CCCCCCC/C=C\CCCCCCCC(=O)OC[C@@H](COC(=O)CCCCCCCCCCCCCC)OC(=O)CCCCCCCCCCCCCCC [TG 15:0_16:0_17:1] (ion (formula + adduct): [C51H96O6+NH4] 1+)	311.4 Å²		
CCCCCCCCCCCCCCCCCC(=O)OC[C@@H](COC(=O)CCCCCCCCCCCCCC)OC(=O)CCCCCCCCCCCCCCC [TG 15:0_16:0_18:0] (ion (formula + adduct): [C52H100O6+NH4] 1+)			317.33 ± 0.31 Å²
CCCCCCCC/C=C\CCCCCCCC(=O)OC[C@@H](COC(=O)CCCCCCCCCCCCCC)OC(=O)CCCCCCCCCCCCCCC [TG 15:0_16:0_18:1] (ion (formula + adduct): [C52H98O6+NH4] 1+)		315.2 Å²	315.47 ± 0.058 Å²
CCCCC/C=C\C/C=C\CCCCCCCC(=O)OC[C@@H](COC(=O)CCCCCCCCCCCCCC)OC(=O)CCCCCCCCCCCCCCC [TG 15:0_16:0_18:2] (ion (formula + adduct): [C52H96O6+NH4] 1+)	312.6 Å²		
CCCCCCCCCCCCCCCCCCCCCC(=O)OC[C@@H](COC(=O)CCCCCCCCCCCCCC)OC(=O)CCCCCCCCCCCCCCC [TG 15:0_16:0_22:0] (ion (formula + adduct): [C56H108O6+NH4] 1+)			328.3 Å²
CCCCCC/C=C\CCCCCCCC(=O)O[C@H](COC(=O)CCCCCCCCCCCCCC)COC(=O)CCCCCCCCCCCCCCCC [TG 15:0_16:1_17:0] (ion (formula + adduct): [C51H96O6+NH4] 1+)	312.5 Å²		
CCCCCC/C=C\CCCCCCCC(=O)O[C@@H](COC(=O)CCCCCCC/C=C\CCCCCCCC)COC(=O)CCCCCCCCCCCCCC [TG 15:0_16:1_18:1] (ion (formula + adduct): [C52H96O6+NH4] 1+)		312.9 Å²	312.8 ± 0.14 Å²
CCCCC/C=C\C/C=C\CCCCCCCC(=O)OC[C@@H](COC(=O)CCCCCCCCCCCCCC)OC(=O)CCCCCCC/C=C\CCCCCC [TG 15:0_16:1_18:2] (ion (formula + adduct): [C52H94O6+NH4] 1+)	310.7 ± 0.99 Å²		310.4 Å²
CCCCCCC/C=C\CCCCCCCC(=O)O[C@@H](COC(=O)CCCCCCC/C=C\CCCCCCCC)COC(=O)CCCCCCCCCCCCCC [TG 15:0_17:1_18:1] (ion (formula + adduct): [C53H98O6+NH4] 1+)		315.9 Å²	
CCCCC/C=C\C/C=C\CCCCCCCC(=O)OC[C@@H](COC(=O)CCCCCCCCCCCCCC)OC(=O)CCCCCCC/C=C\CCCCCCCC [TG 15:0_18:1_18:2] (ion (formula + adduct): [C54H98O6+NH4] 1+)			316.6 Å²
CCCCC/C=C\C/C=C\C/C=C\CCCCC(=O)OC[C@@H](COC(=O)CCCCCCCCCCCCCC)OC(=O)CCCCCCC/C=C\C/C=C\CCCCC [TG 15:0_18:2_18:3] (ion (formula + adduct): [C54H94O6+NH4] 1+)	312.7 Å²		312.8 Å²

Results, then the molecule that gave them:

TIMS collisional cross section (sample type: Liver)	TIMS collisional cross section (sample type: HeLa)	TIMS collisional cross section (sample type: plasma)	SMILES
309.7 Å²			CCCCC/C=C\CCCCCCCC(=O)OC[C@H](COC(=O)CCCCCCCCCCCCCCC)OC(=O)CCCCCCCCCCCCCCC [TG 15:1_16:0_16:0] (ion (formula + adduct): [C50H94O6+NH4] 1+)
307.4 Å²		307.1 Å²	CCCCC/C=C\CCCCCCCC(=O)OC[C@H](COC(=O)CCCCCCC/C=C\CCCCCC)OC(=O)CCCCCCCCCCCCCCC [TG 15:1_16:0_16:1] (ion (formula + adduct): [C50H92O6+NH4] 1+)
		311 Å²	CCCCC/C=C\C/C=C\CCCCCCCC(=O)OC[C@@H](COC(=O)CCCCCCC/C=C\CCCCC)OC(=O)CCCCCCCCCCCCCCC [TG 15:1_16:0_18:2] (ion (formula + adduct): [C52H94O6+NH4] 1+)
	305 Å²		CCCCC/C=C\CCCCCCCC(=O)OC[C@H](COC(=O)CCCCCCC/C=C\CCCCCC)OC(=O)CCCCCCC/C=C\CCCCCC [TG 15:1_16:1_16:1] (ion (formula + adduct): [C50H90O6+NH4] 1+)
309.9 Å²			CCCCC/C=C\CCCCCCCC(=O)OC[C@H](COC(=O)CCCCCCCCCCCCCCCC)OC(=O)CCCCCCC/C=C\CCCCCC [TG 15:1_16:1_17:0] (ion (formula + adduct): [C51H94O6+NH4] 1+)
308.7 Å²			CCCCC/C=C\CCCCCCCC(=O)OC[C@H](COC(=O)CCCCCCC/C=C\CCCCCCC)OC(=O)CCCCCCC/C=C\CCCCCC [TG 15:1_16:1_17:1] (ion (formula + adduct): [C51H92O6+NH4] 1+)
312.2 Å²	310.8 Å²		CCCCC/C=C\CCCCCCCC(=O)OC[C@H](COC(=O)CCCCCCC/C=C\CCCCCCCC)OC(=O)CCCCCCC/C=C\CCCCCC [TG 15:1_16:1_18:1] (ion (formula + adduct): [C52H94O6+NH4] 1+)
	308.4 Å²		CCCCC/C=C\C/C=C\CCCCCCCC(=O)OC[C@@H](COC(=O)CCCCCCC/C=C\CCCCC)OC(=O)CCCCCCC/C=C\CCCCCC [TG 15:1_16:1_18:2] (ion (formula + adduct): [C52H92O6+NH4] 1+)
		314.45 ± 0.21 Å²	C(OC(=O)CCCCCCCCCCCCCCC)[C@]([H])(OC(CCCCCCCCCCCCCCC)=O)COC(CCCCCCCCCCCCCCC)=O [TG 16:0_16:0_16:0] (ion (formula + adduct): [C51H98O6+NH4] 1+)
	311.7 Å²		CCCCCC/C=C\CCCCCCCC(=O)OC[C@@H](COC(=O)CCCCCCCCCCCCCCC)OC(=O)CCCCCCCCCCCCCCC [TG 16:0_16:0_16:1] (ion (formula + adduct): [C51H96O6+NH4] 1+)
317.6 Å²	317.5 Å²	317.6 Å²	CCCCCCCCCCCCCCCCC(=O)OC[C@@H](COC(=O)CCCCCCCCCCCCCCC)OC(=O)CCCCCCCCCCCCCCC [TG 16:0_16:0_17:0] (ion (formula + adduct): [C52H100O6+NH4] 1+)
315.2 Å²			CCCCCCC/C=C\CCCCCCCC(=O)OC[C@@H](COC(=O)CCCCCCCCCCCCCCC)OC(=O)CCCCCCCCCCCCCCC [TG 16:0_16:0_17:1] (ion (formula + adduct): [C52H98O6+NH4] 1+)
320.7 Å²	319.9 Å²	320.25 ± 0.35 Å²	CCCCCCCCCCCCCCCCCC(=O)OC[C@@H](COC(=O)CCCCCCCCCCCCCCC)OC(=O)CCCCCCCCCCCCCCC [TG 16:0_16:0_18:0] (ion (formula + adduct): [C53H102O6+NH4] 1+)
	318.75 ± 0.21 Å²	318.4 Å²	CCCCCC/C=C/CCCCCCCCCC(=O)OC[C@@H](COC(=O)CCCCCCCCCCCCCCC)OC(=O)CCCCCCCCCCCCCCC [TG 16:0_16:0_18:1] (ion (formula + adduct): [C53H100O6+NH4] 1+)
	321.5 Å²		CCCCCCCCC/C=C\CCCCCCCC(=O)OC[C@@H](COC(=O)CCCCCCCCCCCCCCC)OC(=O)CCCCCCCCCCCCCCC [TG 16:0_16:0_19:1] (ion (formula + adduct): [C54H102O6+NH4] 1+)
	324.7 Å²		CCCCCCCC/C=C\CCCCCCCCCC(=O)OC[C@@H](COC(=O)CCCCCCCCCCCCCCC)OC(=O)CCCCCCCCCCCCCCC [TG 16:0_16:0_20:1] (ion (formula + adduct): [C55H104O6+NH4] 1+)
	320.5 Å²		CCCCC/C=C\C/C=C\C/C=C\C/C=C\CCCC(=O)OC[C@@H](COC(=O)CCCCCCCCCCCCCCC)OC(=O)CCCCCCCCCCCCCCC [TG 16:0_16:0_20:4] (ion (formula + adduct): [C55H98O6+NH4] 1+)
314.5 Å²			CC/C=C\C/C=C\C/C=C\C/C=C\C/C=C\CCCC(=O)OC[C@@H](COC(=O)CCCCCCCCCCCCCCC)OC(=O)CCCCCCCCCCCCCCC [TG 16:0_16:0_20:5] (ion (formula + adduct): [C55H96O6+Na] 1+)
	324 Å²		CC/C=C\C/C=C\C/C=C\C/C=C\C/C=C\C/C=C\CCC(=O)OC[C@@H](COC(=O)CCCCCCCCCCCCCCC)OC(=O)CCCCCCCCCCCCCCC [TG 16:0_16:0_22:6] (ion (formula + adduct): [C57H98O6+NH4] 1+)
310.2 Å²			CCCCCC/C=C\CCCCCCCC(=O)OC[C@@H](COC(=O)CCCCCCCCCCCCCCC)OC(=O)CCCCCCC/C=C\CCCCCC [TG 16:0_16:1_16:1] (ion (formula + adduct): [C51H94O6+NH4] 1+)
	315.8 Å²		CCCCCC/C=C\CCCCCCCC(=O)O[C@H](COC(=O)CCCCCCCCCCCCCCC)COC(=O)CCCCCCCCCCCCCCCC [TG 16:0_16:1_17:0] (ion (formula + adduct): [C52H98O6+NH4] 1+)

From the supplement of paper PMC6965134
